Here are results for 23 compounds from the supplement of paper PMC11061612.

In experiment [1] the test system is U-698-M. Nature of the experiment: combination Emax (second highest fraction inhibited in the dose matrix, 72 h); higher = more inhibition. Particulars: B-Cell Non-Hodgkin's Lymphoma. The essentials: (§1)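 Cell lines in DMEM/F12 or RPMI with 10% FBS were plated in 1536-well plates, held 24 hours at 37°C, 5% CO2, then given two-drug dose matrices for 72 hours (DMSO typically 0.2%). Viability was read by CellTiter-Glo 2.0 luminescence and scaled as inhibition from 0 (vehicle wells) to 1 (blank wells). Combination Emax is the second-highest inhibition in the matrix; Bliss excess is observed combination effect minus expected EA + EB − EA·EB, EA and EB being single-agent effects.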

Experiment [2] has as its system U-698-M. Briefly: Bliss excess, mean over the matrix (fraction); higher = more synergy. To be noted: U-[…], B-Cell Non-Hodgkin's Lymphoma. In outline:
as §1

The mark [3] stands for this setting: first compound max 0.3 µM, partner max 10 µM, 7x7.
[4] abbreviates: first compound max 10 µM, partner max 1 µM.
Where [5] appears, read: first compound max 10 µM, partner max 0.3 µM, 7x7.
[6] abbreviates: first compound max 10 µM, partner max 20 µM, 7x7.
Where [7] appears, read: first compound max 1 µM, partner max 1 µM, 7x7.
[8] abbreviates: first compound max 10 µM, partner max 1 µM, 7x7.
The mark [9] stands for this setting: first compound max 10 µM, partner max 10 µM, 7x7.
Setting [10] is: first compound max 10 µM, partner max 5 µM, 7x7.
[11] abbreviates: first compound max 1 µM, partner max 10 µM, 7x7.
[12] abbreviates: first compound max 1 µM, partner max 3 µM, 7x7.
[13] abbreviates: first compound max 1 µM, partner max 1 µM.

In the case of `CCc1c2c(nc3ccc(O)cc13)-c1cc3c(c(=O)n1C2)COC(=O)[C@]3(O)CC` [SN-38] + O=C(c1cc(Cc2n[nH]c(=O)c3ccccc23)ccc1F)N1CCN(C(=O)C2CC2)CC1 [Olaparib], the “combination Emax” value with U-698-M [1] (setting [3]) was determined as 0.813. In the experiment on U-698-M [2] (setting [3]), the Bliss excess turned out to be 0.0095.
Consider `N#Cc1cnc(Nc2cc(NC[C@H]3CNCCO3)c(C(F)(F)F)cn2)cn1` [SRA737] + C=CCn1c(=O)c2cnc(Nc3ccc(N4CCN(C)CC4)cc3)nc2n1-c1cccc(C(C)(C)O)n1 [AZD1775], for which the “combination Emax” value with U-698-M [1] (first compound max 10 µM, partner max 1 µM, may be a limit of the assay) was found to be 1. The Bliss excess in the experiment with U-698-M [2] (setting [4]) was 0.0975.
`N#Cc1cnc(Nc2cc(NC[C@H]3CNCCO3)c(C(F)(F)F)cn2)cn1` [SRA737] + CCc1c2c(nc3ccc(O)cc13)-c1cc3c(c(=O)n1C2)COC(=O)[C@]3(O)CC [SN-38]: the “combination Emax” value in the experiment on U-698-M [1] (setting [5]) is 0.963. Moreover, the Bliss excess in the experiment with U-698-M [2] (setting [5]) is -0.0229.
Consider `N#Cc1cnc(Nc2cc(NC[C@H]3CNCCO3)c(C(F)(F)F)cn2)cn1` [SRA737] + Nc1ccn([C@@H]2O[C@H](CO)[C@@H](O)C2(F)F)c(=O)n1 [Gemcitabine], for which the “combination Emax” value in the experiment with U-698-M [1] (setting [5]) was determined as 0.916. The Bliss excess in the experiment with U-698-M [2] (setting [5]) worked out at 0.111.
In the case of `N#Cc1cnc(Nc2cc(NC[C@H]3CNCCO3)c(C(F)(F)F)cn2)cn1` [SRA737] + O=c1[nH]cc(F)c(=O)[nH]1 [5-Fluorouracil], in the experiment on U-698-M [1] (setting [6]), the “combination Emax” value stood at 0.798. In addition, the Bliss excess in the experiment with U-698-M [2] (setting [6]) is -0.0673.
`C[C@@H](c1ccc2nccn2c1)n1nnc2ncc(-c3cnn(C)c3)nc21` [Savolitinib] + CC1(C)CCC(CN2CCN(c3ccc(C(=O)NS(=O)(=O)c4ccc(NCC5CCOCC5)c([N+](=O)[O-])c4)c(Oc4cnc5[nH]ccc5c4)c3)CC2)=C(c2ccc(Cl)cc2)C1 [Venetoclax]: the “combination Emax” value in the experiment with U-698-M [1] (setting [7]) came to 0.191. Moreover, the Bliss excess in the experiment with U-698-M [2] (setting [7]) is -0.0313.
`C[C@@H](c1ccc2nccn2c1)n1nnc2ncc(-c3cnn(C)c3)nc21` [Savolitinib] + Cc1c2c(nn1C)CSCc1cc(n(C)n1)CSc1cc(c3ccccc3c1)OCCCc1c(C(=O)O)n(C)c3c-2c(Cl)ccc13 [AZD5991]: the “combination Emax” value with U-698-M [1] (setting [7]) turned out to be 0.978. The Bliss excess with U-698-M [2] (setting [7]) was -0.0477.
With `Cn1cnc2c(F)c(Nc3ccc(Br)cc3Cl)c(C(=O)NOCCO)cc21` [Selumetinib] + C=CCn1c(=O)c2cnc(Nc3ccc(N4CCN(C)CC4)cc3)nc2n1-c1cccc(C(C)(C)O)n1 [AZD1775], the “combination Emax” value with U-698-M [1] (setting [4]) came out at 0.892. The Bliss excess with U-698-M [2] (setting [4]) is -0.0472.
Take `Cn1cnc2c(F)c(Nc3ccc(Br)cc3Cl)c(C(=O)NOCCO)cc21` [Selumetinib] + CC(C)n1c(=O)n(C)c2cnc3cc(F)c(-c4ccc(OCCCN5CCCCC5)nc4)cc3c21 [AZD1390]: the “combination Emax” value in the experiment on U-698-M [1] (setting [5]) stood at 0.109. Further, in the experiment with U-698-M [2] (setting [5]), the Bliss excess is -0.0149.
Turning to `Cn1cnc2c(F)c(Nc3ccc(Br)cc3Cl)c(C(=O)NOCCO)cc21` [Selumetinib] + CCN(CCO)CCCOc1ccc2c(Nc3cc(CC(=O)Nc4cccc(F)c4)[nH]n3)ncnc2c1 [AZD2811], the “combination Emax” value in the experiment with U-698-M [1] (setting [8]) turned out to be 0.253. In addition, the Bliss excess in the experiment on U-698-M [2] (setting [8]) was 0.0099.
Consider `Cn1cnc2c(F)c(Nc3ccc(Br)cc3Cl)c(C(=O)NOCCO)cc21` [Selumetinib] + C[C@@H]1COCCN1C2=NC(=NC(=C2)C3(CC3)[S@](=N)(=O)C)C4=C5C=CNC5=NC=C4 [AZD6738], for which the “combination Emax” value with U-698-M [1] (setting [9]) is 0.766. For the same compound, in the experiment on U-698-M [2] (setting [9]), the Bliss excess was -0.0501.
Regarding `Cc1nc(-c2cn3c(n2)-c2ccc(-c4cnn(C(C)(C)C(N)=O)c4)cc2OCC3)n(C(C)C)n1` [Taselisib] + O=C(Nc1ccc2[nH]nc(-c3ccncc3)c2c1)[C@@H]1CCN(CC(=O)N2CCN(c3ccc(-c4ncccn4)cc3)CC2)C1 [SCH772984], the “combination Emax” value in the experiment with U-698-M [1] (setting [10]) was found to be 0.606. Besides, the Bliss excess with U-698-M [2] (setting [10]) was -0.0189.
Regarding `CC(=O)Nc1cccc(-n2c(=O)n(C3CC3)c(=O)c3c(Nc4ccc(I)cc4F)n(C)c(=O)c(C)c32)c1` [Trametinib] + Cc1nc(-c2cn3c(n2)-c2ccc(-c4cnn(C(C)(C)C(N)=O)c4)cc2OCC3)n(C(C)C)n1 [Taselisib], the “combination Emax” value in the experiment on U-698-M [1] (setting [11]) was found to be 0.416. The Bliss excess in the experiment on U-698-M [2] (setting [11]) is -0.0211.
With `CC1(C)CCC(CN2CCN(c3ccc(C(=O)NS(=O)(=O)c4ccc(NCC5CCOCC5)c([N+](=O)[O-])c4)c(Oc4cnc5[nH]ccc5c4)c3)CC2)=C(c2ccc(Cl)cc2)C1` [Venetoclax] + C1CN(CCC1(C(=O)N[C@@H](CCO)C2=CC=C(C=C2)Cl)N)C3=NC=NC4=C3C=CN4 [Capivasertib], the “combination Emax” value in the experiment on U-698-M [1] (setting [12]) amounted to 0.756. Moreover, the Bliss excess in the experiment with U-698-M [2] (setting [12]) is -0.0112.
Turning to `CC1(C)CCC(CN2CCN(c3ccc(C(=O)NS(=O)(=O)c4ccc(NCC5CCOCC5)c([N+](=O)[O-])c4)c(Oc4cnc5[nH]ccc5c4)c3)CC2)=C(c2ccc(Cl)cc2)C1` [Venetoclax] + C=CCn1c(=O)c2cnc(Nc3ccc(N4CCN(C)CC4)cc3)nc2n1-c1cccc(C(C)(C)O)n1 [AZD1775], the “combination Emax” value in the experiment with U-698-M [1] (setting [13]) was found to be 0.978. In addition, the Bliss excess with U-698-M [2] (setting [13]) came to 0.109.
As for `CC1(C)CCC(CN2CCN(c3ccc(C(=O)NS(=O)(=O)c4ccc(NCC5CCOCC5)c([N+](=O)[O-])c4)c(Oc4cnc5[nH]ccc5c4)c3)CC2)=C(c2ccc(Cl)cc2)C1` [Venetoclax] + CCN(CCO)CCCOc1ccc2c(Nc3cc(CC(=O)Nc4cccc(F)c4)[nH]n3)ncnc2c1 [AZD2811], in the experiment with U-698-M [1] (setting [7]), the “combination Emax” value worked out at 0.6. The Bliss excess in the experiment on U-698-M [2] (setting [7]) is -0.0213.
Consider `CC1(C)CCC(CN2CCN(c3ccc(C(=O)NS(=O)(=O)c4ccc(NCC5CCOCC5)c([N+](=O)[O-])c4)c(Oc4cnc5[nH]ccc5c4)c3)CC2)=C(c2ccc(Cl)cc2)C1` [Venetoclax] + CN(C)CCCOc1ccc(-c2ccc3ncc4c(c3c2)n(C2CCOCC2)c(=O)n4C)cn1 [AZD0156], for which the “combination Emax” value in the experiment with U-698-M [1] (setting [7]) stood at 0.72. In the experiment with U-698-M [2] (setting [7]), the Bliss excess stood at 0.0133.
`CC1(C)CCC(CN2CCN(c3ccc(C(=O)NS(=O)(=O)c4ccc(NCC5CCOCC5)c([N+](=O)[O-])c4)c(Oc4cnc5[nH]ccc5c4)c3)CC2)=C(c2ccc(Cl)cc2)C1` [Venetoclax] + COc1cc(Nc2ncc3c(n2)-c2ccc(Cl)cc2C(c2c(F)cccc2OC)=NC3)ccc1C(=O)O [Alisertib]: the “combination Emax” value with U-698-M [1] (setting [11]) turned out to be 0.592. In addition, in the experiment with U-698-M [2] (setting [11]), the Bliss excess was 0.0827.
For `CC1(C)CCC(CN2CCN(c3ccc(C(=O)NS(=O)(=O)c4ccc(NCC5CCOCC5)c([N+](=O)[O-])c4)c(Oc4cnc5[nH]ccc5c4)c3)CC2)=C(c2ccc(Cl)cc2)C1` [Venetoclax] + CS(=O)(=O)CCNCc1ccc(-c2ccc3ncnc(Nc4ccc(OCc5cccc(F)c5)c(Cl)c4)c3c2)o1 [Lapatinib], the “combination Emax” value in the experiment on U-698-M [1] (setting [11]) worked out at 0.503. Also, the Bliss excess in the experiment on U-698-M [2] (setting [11]) is -0.0151.
Regarding `CC1(C)CCC(CN2CCN(c3ccc(C(=O)NS(=O)(=O)c4ccc(NCC5CCOCC5)c([N+](=O)[O-])c4)c(Oc4cnc5[nH]ccc5c4)c3)CC2)=C(c2ccc(Cl)cc2)C1` [Venetoclax] + C[C@@H]1COCCN1C2=NC(=NC(=C2)C3(CC3)[S@](=N)(=O)C)C4=C5C=CNC5=NC=C4 [AZD6738], the “combination Emax” value in the experiment on U-698-M [1] (setting [11]) amounted to 0.86. The Bliss excess in the experiment on U-698-M [2] (setting [11]) is -0.0392.
With `CC1(C)CCC(CN2CCN(c3ccc(C(=O)NS(=O)(=O)c4ccc(NCC5CCOCC5)c([N+](=O)[O-])c4)c(Oc4cnc5[nH]ccc5c4)c3)CC2)=C(c2ccc(Cl)cc2)C1` [Venetoclax] + C[C@@H](Nc1cc(F)cc(F)c1)c1cc(C(=O)N(C)C)cc2c(=O)cc(N3CCOCC3)oc12 [AZD8186], in the experiment with U-698-M [1] (setting [12]), the “combination Emax” value is 0.564. Also, the Bliss excess in the experiment on U-698-M [2] (setting [12]) is -0.0045.
On to `CC1(C)CCC(CN2CCN(c3ccc(C(=O)NS(=O)(=O)c4ccc(NCC5CCOCC5)c([N+](=O)[O-])c4)c(Oc4cnc5[nH]ccc5c4)c3)CC2)=C(c2ccc(Cl)cc2)C1` [Venetoclax] + Cc1cc2ncnn2cc1Nc1ncc2c(n1)n(C1CCOCC1)c(=O)n2C [AZD7648], for which, in the experiment with U-698-M [1] (setting [11]), the “combination Emax” value was determined as 0.57. For the same compound, the Bliss excess in the experiment on U-698-M [2] (setting [11]) came out at 0.041.
As for `CC1(C)CCC(CN2CCN(c3ccc(C(=O)NS(=O)(=O)c4ccc(NCC5CCOCC5)c([N+](=O)[O-])c4)c(Oc4cnc5[nH]ccc5c4)c3)CC2)=C(c2ccc(Cl)cc2)C1` [Venetoclax] + Cn1cnc2c(F)c(Nc3ccc(Br)cc3Cl)c(C(=O)NOCCO)cc21 [Selumetinib], the “combination Emax” value in the experiment with U-698-M [1] (setting [12]) was 0.408. The Bliss excess in the experiment with U-698-M [2] (setting [12]) is -0.0473.
